# Tests used:
# eyelids/ocular surface = experiment: Cooling after wiping closed eyelids with a towelette; assay type: in vivo, human; settings: 1 mg/ml
# Protocol: A second method of testing was to take a towelette saturated with a test solution of the cooling agent and to wipe the towelette over the dosed eyelids. The presence or absence of cooling (or irritanty, if applicable) sensations was then recorded at 10 minute intervals until the cessation of coolness in two successive intervals.
# For testing of cooling compounds delivered to the eyelids with a towelette, the following procedures were used in the experiments of Table 3 and in Study 5 and 6. Three ml of liquid suspension or solution in distilled water was added to a 0.4 g cotton rectangle (50 mm×60 mm) (CS-being, Daisan Cotton, Japan) and individually sealed with a vaccuum apparatus (Foodsaver®, Jarden Corp.). Samples were stored in the freezer or refrigerator and thawed to room temperature before use. Wiping with the cotton pad delivers 40 to 45 μl of liquid composition to the eyelids ([…] to 22 μl per eye). So, if the concentration of the test substance was 1 mg/ml, the dose delivered to both eyes is a total of ˜40 to […], or ˜20 μg per eye. This method allows a reliable delivery of test substances because the dissolved or suspended particles in solution are evenly dispersed on the cotton pad in an excess volume of liquid. The presence or absence of cooling sensations was noted as being present or absent at 5 to 10 min intervals until no coolness was noticeable in two successive test intervals. Only the duration of cooling on the ocular surface was recorded, without an attempt to quantify the intensity of the sensation.
# [1] = system: dorsal surface of the tongue; experiment: Tongue cooling threshold, impregnated filter paper (Watson et al.); assay type: in vivo, human; settings: summary comparison
# Protocol: Watson et al. (U.S. Pat. No. 4,178,459) tested the properties of N-substituted p-menthane carboxamides. However, the branched chain alkylesters such as the isopropyl analogs described here in the Gly and D-Ala configuration of Formula 1 were never synthesized by Watson et al. Bioactivity of the Watson et at compounds were tested by putting filter paper (1×1 cm), impregnated with a known amount of compound, onto the dorsal surface of the tongue of the volunteer test subject. After 30 seconds, the subject was required to report presence or absence of a cooling effect. […] The average threshold of (−)-menthol for 6 subjects was 0.25 μg, but there was a 100-fold variation in individual sensitivity. The potencies of coolness signals detected from the dorsal surface of the tongue are not correlated to skin sensations of coolness may be confounded by gustatory, olfactory, and other variables, as well as by dilution from saliva.
# [2] = system: dorsal surface of the tongue; settings: threshold amount producing cooling on tongue of human volunteers; values from Watson US 04178459; cited from earlier work
# philtrum skin = experiment: Cooling sensation after ointment applied to philtrum skin; assay type: in vivo, human
# Description: A reliable place for topical application is the skin above the upper lip (above the vermilion border of the lips), on the philtrum, lateral to the philtrum until the nasolabial folds, and on the lower nostrils (subnasale). This part of the face is known to be densely innervated with cold receptors, second only to the surfaces of the eyeball and anogenitalia.
# The intensity of the subjective skin sensation is rated as 0, 1, 2 or 3 with: 0 as no change; 1 as slight coolness, cold, or tingling; 2 as clear-cut signal of coolness, cold, or tingling; and 3 as robust cooling or cold. The intervals for recording sensations are 5 to 10 minutes, until two successive zeroes are obtained. The results (shown in FIG. 1) are averaged values of 4 to 6 separate trials in the same individual. The data are plotted using SigmaPlot® (Systat Software, Point Richmond Calif.) and a smoothing function with a negative exponential was used for analysis and statistical fit of the results. Confirmatory trials of cooling action of the long-acting NACE compounds were obtained in 2 to 4 individuals but not quantified for some because of the large number of chemicals that were evaluated
# The onset of drug action is taken as the time to reach 2 units of coolness intensity, and offset of drug action is the time when coolness intensity drops below 2, after previously surpassing 2 units. The duration of cooling action is defined as the offset time minus the onset time. […] The quality of the sensation is noted, for example, as pure refreshing coolness, or if the sensation is accompanied by irritation (stinging or burning). The quality of the sensation is not rated for intensity.
# For bioassay on the skin, approximately 30 mg was stirred and dissolved in 3 g of warm liquid Aquaphor® ointment to a yield 5 to 10 mg/ml (0.5% to 1.0 wt/vol) ointment. After cooling, 40 to 70 mg of the solid ointment was placed on the tip of a plastic stick and applied to the skin above the upper lip, on the philtrum, and lateral to the philtrum, up to the nasolabial folds, of test subjects and the onset and duration of cooling sensations noted.
# The intensity of the subjective skin sensation was rated as 0, 1, 2 or 3 with: 0 as no change; 1 as slight coolness, cold, or tingling; 2 as clear signal of coolness, cold, or tingling; and 3 as robust cooling or cold. The intervals for recording sensations were 5 to 10 minutes, until two successive zeroes were obtained. The results (shown in FIG. 1) are averaged values of 4 to 6 separate trials in the same individual. The data are plotted using SigmaPlot® (Systat Software, Point Richmond, Calif., USA) and a smoothing function with a negative exponential was used for analysis and statistical fit of the results.
# The onset of drug action was taken as the time to reach 2 units of coolness intensity, and offset of drug action was the time when coolness intensity drops below 2, after previously surpassing 2 units. The duration of cooling action was defined as the offset time minus the onset time. […] The quality of the sensation was also noted: such as pure refreshing coolness, or if the sensation was accompanied by irritation (stinging or burning). The quality of the sensation was not rated for intensity.
# For the results in FIG. 1, the test compounds were singly applied to the skin above the upper lips at a 40 to 70 mg dose of a 1% wt/vol (10 mg/ml) ointment. Subsequently, for the results shown in Table 3, the test dose on the philtrum was reduced to a 0.5% wt/vol (5 mg/ml) ointment. The reason for choosing a lower dose was to increase the number of trials per individual and to have a reduced chance of substances accumulating in the skin.
# periorbital skin = experiment: Ointment applied to periorbital skin: coolness, eye irritancy, alerting (Study 3); assay type: in vivo, human; settings: summary comparison
# Description: The ointment was also applied to the periorbital skin (upper and lower eyelids and on skin adjacent to the lateral canthus) for tests of irritancy near the eyes, and the subject is asked if irritation is present or absent. The intensity of the eye sensation is not rated.
# For tests of irritancy near the eyes in Study 3 and 4, the ointment was applied to the periorbital skin (upper and lower eyelids and on skin adjacent to the lateral canthus), and the subject asked if irritation is present or absent. The intensity of the eye sensation is not rated, but just noted as being present or absent
# A 1% preparation of 2-isopropyl-5-methyl-cyclohexanecarbonyl D-alanine methyl ester in Aquaphor® ointment was applied bilaterally to the periorbital area of four individuals. […] This experiment was then repeated three days later in the evening with the same individuals whose occupations required daylong activities before a computer screen.
compound,measurement,setting,value
"CC1CCC(C(C)C)C(O)C1 (single isomer, unassigned; (-)) [(−)-menthol, reference compound]",Acts for >1 hour at 1 mg/ml,eyelids/ocular surface,no
same,Cooling on tongue,[1],yes
same,Threshold tongue,[2],0.25 µg
same,duration of cooling (FIG. 1),philtrum skin; 40 to 70 mg of 1% wt/vol (10 mg/ml) ointment on skin above the upper lips,0.3 h
same,Cooling on skin of face,philtrum skin; summary comparison,yes
same,“perfect” cooling experience,philtrum skin; summary comparison,no
same,Eye Irritancy,periorbital skin,yes
